From patent US11090304B2 (Amgen Inc., priority 2018, dated 2021) come the findings set out here.

SMILES strings stand for the structures. Like-named read-outs stand apart in the source and are kept apart here.

Assay [1] concerns Phosphorylation of ERK1/2 in MIA PaCa-2 cells. Nature of the assay: Phospho-ERK1/2 MSD assay in MIA PaCa-2 cells. The following applies: Homo sapiens. In kind it is cell-based. In short, it runs like this: (§1)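 IC50 comes from a 4-parameter logistic fit of MSD phospho-ERK1/2 signal in lysates. Before lysis, MIA PaCa-2 or A549 cells were exposed to titrated compound for 2 or 4 h at 37 °C, followed by a 10 min 10 ng/mL EGF stimulus.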

Assay [2] deals with GDP-bound KRAS protein (aa 1-169), containing both G12C and C118A amino acid substitutions (Homo sapiens, UniProt P01116, C118A/G12C). Nature of the assay: Coupled nucleotide exchange assay (SOS-mediated, AlphaScreen). Format: biochemical. The following applies: for Coupled exchange IC50 (5 min) / IC50: 5 min compound pre-incubation; for IC50: read-out: Coupled exchange IC50 (5 min); for Coupled exchange IC50 (2 h): 2 h compound pre-incubation.
GDP-bound KRAS protein (aa 1-169), containing both G12C and C118A amino acid substitutions, sequence (P01116 1-169 isoform P01116-2 G12C/C118A): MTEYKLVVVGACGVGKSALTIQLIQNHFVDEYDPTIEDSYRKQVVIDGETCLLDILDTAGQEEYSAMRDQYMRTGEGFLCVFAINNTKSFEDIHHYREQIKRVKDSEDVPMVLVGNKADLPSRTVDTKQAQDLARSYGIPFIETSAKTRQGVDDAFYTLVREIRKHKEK

For assay [3], the system named is Phosphorylation of ERK1/2 in A549 cells. Nature of the assay: Phospho-ERK1/2 MSD assay in A549 cells. Format: cell-based. The following applies: Homo sapiens. In short, it runs like this: as §1
[4] abbreviates: MIA PaCa-2, 2 h, read-out: p-ERK IC50 (2 h; MIA PaCa-2), 2 h compound treatment.
Where [5] appears, read: A549, 2 h, read-out: p-ERK IC50 (2 h; A549), 2 h compound treatment.
The mark [6] stands for this setting: MIA PaCa-2, 4 h, read-out: p-ERK IC50 (4 h; MIA PaCa-2), 4 h compound treatment.
The mark [7] stands for this setting: A549, 4 h, read-out: p-ERK IC50 (4 h; A549), 4 h compound treatment.

Take `C=CC(=O)N1CCN(c2nc(=O)n(-c3c(Cl)cccc3Cl)c3nc(-c4c(O)cccc4F)c(Cl)cc23)[C@@H](C)C1` [Example 54-33, 6-chloro-1-(2,6-dichlorophenyl)-7-(2-fluoro-6-hydroxyphenyl)-4-((2S)-2-methyl-4-(2-propenoyl)-1-piperazinyl) pyrido[2,3-d]pyrimidin-2(1H)-one]: the values for the IC50 in assay [1] (setting [4]) and in assay [3] (setting [5]) were 215 nM and at least 10000 nM, respectively. Moreover, in assay [2], the “Coupled exchange IC50 (5 min)” value is given as 0.176 | nda μM.
Consider `C=CC(=O)N1CCN(c2nc(=O)n(-c3c(C)cncc3C)c3nc(-c4c(O)cccc4F)c(Cl)cc23)[C@@H](C)C1` [Example 54-41, 6-chloro-1-(3,5-dimethyl-4-pyridinyl)-7-(2-fluoro-6-hydroxyphenyl)-4-((2S)-2-methyl-4-(2-propenoyl)-1-piperazinyl) pyrido[2,3-d]pyrimidin-2(1H)-one], for which the IC50 is 2900 nM in assay [1] (setting [4]) and at least 10000 nM in assay [3] (setting [5]). For the same molecule, the “Coupled exchange IC50 (5 min)” value in assay [2] is listed as 0.724 | nda μM.
Turning to `C=CC(=O)N1CCN(c2nc(=O)n(-c3c(C)ncnc3C)c3nc(-c4c(O)cccc4F)c(Cl)cc23)[C@@H](C)C1` [Example 54-48, 6-chloro-1-(4,6-dimethyl-5-pyrimidinyl)-7-(2-fluoro-6-hydroxyphenyl)-4-((2S)-2-methyl-4-(2-propenoyl)-1-piperazinyl) pyrido[2,3-d]pyrimidin-2(1H)-one], the IC50 in assay [1] (setting [4]) was 2380 nM; in assay [3] (setting [5]), at least 10000 nM. In addition, the “Coupled exchange IC50 (5 min)” value in assay [2] is reported as 0.779 | nda μM.
Take `C=CC(=O)N1CCN(c2nc(=O)n(-c3ncccc3C(C)C)c3nc(-c4c(O)cccc4F)c(Cl)cc23)[C@@H](C)C1` [Example 54-57, 6-chloro-7-(2-fluoro-6-hydroxyphenyl)-4-((2S)-2-methyl-4-(2-propenoyl)-1-piperazinyl)-1-(3-(2-propanyl)-2-pyridinyl) pyrido[2,3-d]pyrimidin-2(1H)-one]: the IC50 in assay [1] (setting [4]) was 53 nM; in assay [2], 83 nM; in assay [3] (setting [5]) it was at least 10000 nM.
Regarding `C=CC(=O)N1CCN(c2nc(=O)n(-c3ccncc3C3CC3)c3nc(-c4c(O)cccc4F)c(Cl)cc23)[C@@H](C)C1` [Example 54-59, 6~chloro-1-(3-cyclopropyl-4-pyridinyl)-7-(2-fluoro-6-hydroxyphenyl)-4-((2S)-2-methyl-4-(2-propenoyl)-1-piperazinyl) pyrido[2,3-d]pyrimidin-2(1H)-one], the results for the IC50 in assay [1] (setting [4]) and in assay [3] (setting [5]) were 712 nM and at least 10000 nM, respectively. Moreover, in assay [2], the “Coupled exchange IC50 (5 min)” value is recorded as 0.22 | nda μM.
For the molecule `C=CC(=O)N1CCN(c2nc(=O)n(-c3c(CC)cccc3CC)c3nc(-c4ccccc4F)c(Cl)cc23)[C@@H](C)C1` [Example 54-60, 6-ehloro-1-(2,6-diethylphenyl)-7-(2-fluorophenyl)-4-((2S)-2-methyl-4-(2-propenoyl)-1-piperazinyl) pyrido[2,3-d]pyrimidin-2(1H)-one], the IC50 in assay [1] (setting [4]) is 145 nM; in assay [1] (setting [6]), 91 nM; in assay [3] (setting [5]) it was at least 10000 nM; in assay [3] (setting [7]), at least 11100 nM. Further, the “Coupled exchange IC50 (5 min)” value in assay [2] was 0.216 µM. The “Coupled exchange IC50 (2 h)” value in assay [2] came out at 93 nM.
In the case of `C=CC(=O)N1CCN(c2nc(=O)n(-c3c(CC)cccc3CC)c3nc(Cl)c(Cl)cc23)[C@@H](C)C1` [Example 54-61, 6,7-dichloro-1-(2,6-diethylphenyl)-4-((2S)-2-methyl-4-(2-propenoyl)-1-piperazinyl) pyrido[2,3-d]pyrimidin-2(1H)-one], the IC50 in assay [1] (setting [6]) was 1370 nM; in assay [3] (setting [7]), at least 11100 nM. The “Coupled exchange IC50 (2 h)” value in assay [2] is reported as “nda | 0.379 μM”.
In the case of `C=CC(=O)N1CCN(c2nc(=O)n(-c3c(CC)cccc3CC)c3nc(-c4ccccc4)c(Cl)cc23)[C@@H](C)C1` [Example 54-62, 6-chloro-1-(2,6-diethylphenyl)-4-((2S)-2-methyl-4-(2-propenoyl)-1-piperazinyl)-7-phenyl-pyrido[2,3-d]pyrimidin-2(1H)-one], the concentration for half-maximal inhibition (IC50) in assay [1] (setting [4]) is 407 nM; in assay [1] (setting [6]), 223 nM; in assay [3] (setting [5]), at least 10000 nM; in assay [3] (setting [7]) it was at least 100000 nM. The “Coupled exchange IC50 (5 min)” value in assay [2] was 0.808 µM. For the same molecule, in assay [2], the “Coupled exchange IC50 (2 h)” value was found to be 172 nM.
Turning to `C=CC(=O)N1CCN(c2nc(=O)n(-c3c(CC)cccc3CC)c3nc(-c4ccccc4O)c(Cl)cc23)[C@@H](C)C1` [Example 54-63, 6-chloro-1-(2,6-diethylphenyl)-7-(2-hydroxyphenyl)-4-((2S)-2-methyl-4-(2-propenoyl)-1-piperazinyl) pyrido[2,3-d]pyrimidin-2(1H)-one], the IC50 is 291 nM in assay [1] (setting [4]), 136 nM in assay [1] (setting [6]) and at least 33300 nM in assay [3] (setting [7]). In addition, the “Coupled exchange IC50 (5 min)” value in assay [2] came to 0.845 µM. In assay [2], the “Coupled exchange IC50 (2 h)” value came to 164 nM.
In the case of `C=CC(=O)N1CCN(c2nc(=O)n(-c3c(CC)cccc3CC)c3nc(-c4c(F)cccc4F)c(Cl)cc23)[C@@H](C)C1` [Example 54-65, 6-chloro-1-(2,6-diethylphenyl)-7-(2,6-difluorophenyl)-4-((2S)-2-methyl-4-(2-propenoyl)-1-piperazinyl) pyrido[2,3-d]pyrimidin-2(1H)-one], the IC50 was 140 nM in assay [1] (setting [4]), 133 nM in assay [1] (setting [6]), at least 10000 nM in assay [3] (setting [5]) and at least 100000 nM in assay [3] (setting [7]). In addition, the “Coupled exchange IC50 (5 min)” value in assay [2] came out at 0.253 µM. Moreover, the “Coupled exchange IC50 (2 h)” value in assay [2] stood at 54 nM.
As for `C=CC(=O)N1CCN(c2nc(=O)n(-c3c(C)cccc3C)c3nc(-c4c(O)cccc4F)c(Cl)cc23)[C@@H](C)C1` [Example 54-69, 6-chloro-1-(2,6-dimethylphenyl)-7-(2-fluoro-6-hydroxyphenyl)-4-((2S)-2-methyl-4-(2-propenoyl)-1-piperazinyl) pyrido[2,3-d]pyrimidin-2(1H)-one], the IC50 is 199 nM in assay [1] (setting [4]), 306 nM in assay [2] and at least 10000 nM in assay [3] (setting [5]).
For the molecule `C=CC(=O)N1CCN(c2nc(=O)n(-c3ccccc3C(C)C)c3nc(-c4cc(O)ccc4Br)c(Cl)cc23)[C@@H](C)C1` [Example 54-87, 7-(2-bromo-5-hydroxyphenyl)-6-chloro-4-((2S)-2-methyl-4-(2-propenoyl)-1-piperazinyl)-1-(2-(2-propanyl)phenyl)pyrido [2,3-d]pyrimidin-2(1H)-one], the IC50 in assay [1] (setting [4]) was 66 nM; in assay [3] (setting [5]) it was at least 10000 nM. For the same molecule, the “Coupled exchange IC50 (5 min)” value in assay [2] is 0.109 | nda μM.
The corresponding values for `C=CC(=O)N1CCN(c2nc(=O)n(-c3ccccc3C(C)C)c3nc(-c4cc(O)ccc4F)c(Cl)cc23)[C@@H](C)C1` [Example 54-88, 6-chloro-7-(2-fluoro-5-hydroxyphenyl)-4-((2S)-2-methyl-4-(2-propenoyl)-1-piperazinyl)-1-(2-(2-propanyl)phenyl)pyrido [2,3-d]pyrimidin-2(1H)-one] are 101 nM, at least 10000 nM and 0.139 | nda μM.
As for `C=CC(=O)N1CCN(c2nc(=O)n(-c3c(CC)cccc3CC)c3nc(-c4ccccc4F)c(Cl)cc23)[C@@H](C(=O)OC)C1` [Example 55-30, methyl (2R)-1-(6-chloro-1-(2,6-diethylphenyl)-7-(2-fluorophenyl)-2-oxo-1,2-dihydropyrido[2,3-d]pyrimidin-4-yl)-4-(2-propenoyl)-2-piperazinecarboxylate], the IC50 in assay [1] (setting [4]) is 1610 nM; in assay [3] (setting [5]), at least 10000 nM. Besides, the “Coupled exchange IC50 (5 min)” value in assay [2] is given as 1.95 | nda μM.
The corresponding values for `C=CC(=O)N1CCN(c2nc(=O)n(-c3ccccc3C(C)C)c3nc(-c4ccccc4F)c(F)cc23)[C@@H](C)C1` [Example 57-7, 6-fluoro-7-(2-fluorophenyl)-4-((2S)-2-methyl-4-(2-propenoyl)-1-piperazinyl)-1-(2-(2-propanyl)phenyl)pyrido[2,3-d]pyrimidin-2(1H)-one] are 450 nM, at least 10000 nM and 0.991 | nda μM.
As to `C=CC(=O)N1CCN(c2nc(=O)n(CC3(C(F)(F)F)CC3)c3nc(-c4c(O)cccc4F)c(Cl)cc23)CC1` [Example 60-3, 6-chloro-7-(2-fluoro-6-hydroxyphenyl)-4-(4-(2-propenoyl)-1-piperazinyl)-1-((1-(trifluoromethyl)cyclopropyl)methyl)pyrido[2,3-d]pyrimidin-2(1H)-one], the IC50 in assay [1] (setting [4]) is 657 nM; in assay [1] (setting [6]) it was 552 nM; in assay [3] (setting [5]), at least 100000 nM; in assay [3] (setting [7]), 65000 nM. The “Coupled exchange IC50 (5 min)” value in assay [2] turned out to be 1.02 µM. Also, the “Coupled exchange IC50 (2 h)” value in assay [2] was determined as 101 nM.
Turning to `C=CC(=O)N1CCN(c2nc(=O)n(CC(C)(C)C)c3nc(-c4c(O)cccc4F)c(Cl)cc23)CC1` [Example 60-5, 6-chloro-1-(2,2-dimethylpropyl)-7-(2-fluoro-6-hydroxyphenyl)-4-(4-(2-propenoyl)-1-piperazinyl)pyrido[2,3-d]pyrimidin-2(1H)-one], the IC50 came out at 492 nM in assay [1] (setting [4]), 447 nM in assay [1] (setting [6]), 52400 nM in assay [3] (setting [5]) and 60500 nM in assay [3] (setting [7]). Moreover, the “Coupled exchange IC50 (5 min)” value in assay [2] was 0.589 µM. Also, the “Coupled exchange IC50 (2 h)” value in assay [2] came to 102 nM.
For `C=CC(=O)N1CCN(c2nc(=O)n(CC(C)(C)C)c3nc(-c4ccccc4F)c(Cl)cc23)CC1` [Example 60-6], the IC50 in assay [1] (setting [6]) came to 1040 nM. In addition, in assay [2], the “Coupled exchange IC50 (5 min)” value was 1.85 µM and the “Coupled exchange IC50 (2 h)” value amounted to 161 nM. Further, the IC50 in assay [3] (setting [7]) was 67700 nM.

In general, IC50 refers to the concentration that gives 50% inhibition.
